As for `Cl.O=C(N[C@@H]1CN2CCC1CC2)c1cccc2cn[nH]c12`, the melting point (as a rule, the temperature of the solid-liquid transition) lay within 180 to 188 °C.

With `Cl.O=C(N[C@@H]1CN2CCC1CC2)c1ccc2scnc2c1`, the melting point is 166 to 176 °C.

Take `Cl.O=C(N[C@H]1CN2CCC1CC2)c1ccc2ncsc2c1`: the melting point is 285 °C (dec.).

Take `Cl.O=C(N[C@H]1CN2CCC1CC2)c1ccc2scnc2c1`: the melting point was 170 to 180 °C.
